{
  "source": "paper PMC12077799",
  "about": "“Fragment-based drug discovery for transthyretin kinetic stabilisers using a novel capillary zone electrophoresis method” (PLOS One, 2025)",
  "target": "T1, Human transthyretin (TTR) thyroxine binding sites (Homo sapiens, UniProt P02766)",
  "T1 construct": "purchased SCIPAC (Sittingbourne, Kent, UK) P171-1",
  "experiment": "TTR CZE Free Probe Peak Height Restoration (FPPHR) assay, 8-ANS displacement",
  "description": "CZE assays development and fragment screening were performed on a Beckman P/ACE MDQ capillary electrophoresis system (Beckman Coulter Inc., Brea, CA) operated by 32 Karat™ software. All capillaries (Polymicro Technologies, Phoenix, AZ) used were internally coated with polyvinyl alcohol and of around 30 cm in length, 75 microns in internal diameter. Capillary temperature was maintained at 20 °C by recirculating fluorinated fluid coolant during electrophoresis. Sample trays and buffer trays temperature were maintained at 4°C and ambient respectively. For every electrophoretic run, the capillary was pressure rinsed and prefilled with electrophoresis buffer also known as background electrolyte (termed as Running Buffer hereafter) before injection. After each electrophoretic run, the capillary was rinsed with Running Buffer and H2O by pressure (20 psi for 1 minute). Three Running Buffers (RB), A: 20 mM Tris pH 7.5, 1 mM KCl, 1.62 mM NaCl; B: 20 mM HEPES pH 7.0, 2 mM CaCl2 and C: 20 mM HEPES pH 7.0, 2 mM CaCl2, 1% DMSO were used. All CE traces were analysed by 32Karat™ Software with a built-in automatic peak integration algorithm.\nControl 1 Inject Buffer (IB) containing 30 μM 8-ANS was prepared by mixing 1 μL of 3 mM 8-ANS DMSO stock with 99 μL of Running Buffer B in a 0.2 mL PCR tube. Control 2 Inject Buffer was prepared by mixing 1μL of 3 mM 8-ANS DMSO stock with 20 μL of 100 μM tetrameric TTR stock in Running Buffer B and 79 μL of Running Buffer B. The final concentrations (f/c) were 8-ANS 30 μM, TTR 20 μM and 1% DMSO v/v.\nThe maximum Free Probe Peak Height (Control 1 Peak Height) was determined by Outlet Injection (see Fig 1) of Control 1 with an injection pressure of 0.5 psi for 5 seconds (equivalent to ≈ 20–30 nL). An identical injection of Control 2 provides the minimum Free Probe Peak Height (Control 2 Peak Height) enabling calculation of % of bound and unbound, i.e., free 8-ANS. To determine the 8-ANS peak height in Control 1 and Control 2, the capillary was prefilled with Buffer C and electrophoresis carried out at 10 kV (Normal Polarity, Fig 1) with UV monitoring at 230 nm. For displacement analysis, ligand DMSO stock was diluted in Buffer B and used to fill the capillary as the Running Buffer. Electrophoresis commenced after injection of Control 2, thus the injected 8-ANS-TTR complex migrates inside a capillary filled with the test ligand. The observed 8-ANS peak height is defined as Sample Peak Height and the displaced 8-ANS can be calculated as:\n\\% of Free Probe Peak Height Restoration= Sample Peak Height−Control 2 Peak Height/Control 1 Peak Height−Control 2 Peak Height",
  "data": [
    {"compound": "c1ccc2c(-c3cn[nH]c3)ccnc2c1", "note": "[SFL001535, 4-(3H-pyrazol-4-yl)quinoline]", "values": [
      {"measurement": "FPPHR % tested at 10 µM", "setting": "compound 10 µM in Running Buffer, 10% minimum for a binder", "value": 34.10, "unit": "% tested at 10 µM"},
      {"measurement": "FPPHR % at 100 μM", "setting": "compound 100 μM in Running Buffer, 10% minimum for a binder", "value": 64.23, "unit": "%"},
      {"measurement": "inhibition at 50 µM", "setting": "read-out: FPPHR % at 50 μM", "value": 60.5, "unit": "%"}
    ]}
  ]
}
